Source: PMC11351612, “Heteronuclear Complexes with Promising Anticancer Activity against Colon Cancer” (Biomedicines, 2024)

Key:
[1] = tested on: thioredoxin reductase (TrxR); details: undifferentiated Caco-2/TC7, IC50 concentration, 24 h incubation
Method: The Caco-2 cell line (TC7 clone) was seeded in a 25 cm^2 flask (2 × 10^6). […] The procedural guidelines of the supplied kit were followed. […] The outcomes were presented as a percentage representing the TrxR activity relative to the control.

Caco-2/TC7 cells [2] = assay: Annexin V/propidium iodide apoptosis assay, Caco-2/TC7; type: cell-based, human; details: Caco-2/TC7, IC50 concentration; vehicle 12%
Method: Study of cell death. After the appropriate incubation, cells were collected and stained with annexin V-FTIC, according to the manufacturer’s instructions. A negative control was prepared, containing unreacted cells to define the basal level of apoptotic and necrotic or dead cells. After incubation, the cells were transferred to flow-cytometry tubes and washed twice with temperate phosphate-buffered saline (PBS), suspended in 100 μL annexin V binding buffer (10 mM Hepes/NaOH, pH 7.4, 140 mM NaCl, 2.5 mM CaCl2), then 5 μL of annexin V-FITC, and 5 μL of PI was added to each 100 μL of cell suspension. After incubation for 15 min at room temperature in the dark, 400 μL of 1× annexin binding buffer was added and analysed by flow cytometry within one hour. The signal intensity was measured using a FACSARIA BD and analysed using FASCDIVA BD.
This inhibition of apoptosis produces a fast growth and proliferation of cancerous cells. The population of early and late apoptotic cells increased to 35% after treatment with complex 1 in comparison with the vehicle-treated cells (12%). […] Additionally, the effect observed after treating the cells with a dosage equal to the IC50 concentration is time-dependent. […]

Caco-2/TC7 = assay: Intracellular ROS generation (DCFH-DA); type: cell-based, human; details: IC50 concentration, monitored 3 h
Method: Measurement of intracellular ROS generation. The production of ROS was measured in Caco-2/TC7 seeded at a 4000 cells/well concentration in a 96-well plate, as described above. After 24 h, the culture growth medium was removed and cells were washed with PBS 1× and incubated with 20 µM DCFH-DA (Sigma-Aldrich) (100 µL/well) at 37 °C for 45 min in the dark. Afterwards, cells were washed with PBS 1× and then incubated with the tested compounds at their IC50 concentration or with 500 µM of H2O2 for the positive control. The fluorescent emission of DCF was monitored at 530 nm right after the addition of the complexes for 3 h using a microplate reader (λex = 485 nm), measuring every 15 min. The temperature was maintained at 37 °C during the experiment.
It is important to study the effect caused by ROS production upon the treatment of cells with metallic complexes, as it could indicate TrxR (thioredoxin reductase) inhibition and induction of apoptosis. Thus, the production of hydrogen peroxide in Caco-2 cells upon treatment with IC50 concentrations of complexes 1 and 2 has been studied. The method based on the H2O2-sensitive fluorescent probe DCFH-DA (2′-7′dichlorofluorescin diacetate) has been used. […]

Caco-2/PD7 cells = assay: Cell cycle analysis (PI, flow cytometry), Caco-2/PD7; type: cell-based, human; details: Caco-2/PD7, IC50 concentration, 72 h
Method: (§1) Cell cycle analysis. After treatment, the cells were fixed in 70% ice-cold ethanol and stored at 4 °C for 24 h. After centrifugation, the cells were rehydrated in PBS (phosphate-buffered saline) and stained with propidium iodide (PI, 50 μg/mL) solution containing RNase A (100 μg/mL). PI-stained cells were analysed for DNA content in a FACSARRAY BD equipped with an argon ion laser. […] Cell cycle distribution was determined on a linear scale. The percentage of cells in cycle phases was determined using MODIFIT 3.0 verity software.
(§2) To investigate the influence of the heteronuclear derivative 1 on the cell cycle distribution of Caco-2 cells, propidium iodide-stained cells were analysed by flow cytometry. The distribution of cells found in each stage of the cell cycle for the control samples was sufficiently homogeneous (Figure 4). For both cell lines, samples analysed after 48 h of incubation had 22% of the cells in the G0/G1 phase, ca. 45% of cells in the synthesis phase, and approximately 30% of cells undergoing the G2 phase or cell division. The low percentage of cells observed in the G0 and G1 phases may be indicative of elevated proliferation and an uncontrolled growth of cancerous cells. It would be of interest to ascertain whether the complexes chosen for the treatments could arrest the cell cycle at phases preceding cell division, thereby inhibiting the proliferation of cancer cells.

Caco-2/TC7 cells [3] = assay: Cell cycle analysis (PI, flow cytometry), Caco-2/TC7; type: cell-based, human; details: Caco-2/TC7, IC50 concentration, 48 h and 72 h
Method: as §1, §2

[4] = Solubility in water at 25 °C

[Cu{Au(Spy)(PTA)}2]PF6 [compound 1]
Effect on TrxR activity [1]: inhibited TrxR activity | Population of early and late apoptotic cells (Caco-2/TC7 cells [2]): 35% | H2O2 / ROS formation (DCF fluorescence vs vehicle-treated cells) (Caco-2/TC7): more markedly | Effect on cell cycle distribution (Caco-2/PD7 cells): not enough living cells being found for the analysis | Effect on cell cycle distribution (Caco-2/TC7 cells [3]): arrest of the cell cycle in Caco-2/TC7 cells within the G0/G1 phases | S 25 °C, H2O [4]: < 0.5 g/L
